Test results reported in patent US20060287383A1, “Substance exhibiting antidepressant property” (priority 2003, published 2006).
Where a name gives a salt, the structure may show the parent alone.

What was measured:
white outbred male rats [1] = test: reserpine depression method according to Bernardi; type: in vivo; conditions: reserpine 2.5 mg/kg intraperitoneally alone
From the text: The method of reserpine depression according to Bernardi (Bernardi D., Paglialunga S., Jori A. Peripheral and central components in the hyperthermic effect of desipramine in rezerpinized rats//J. Pharm. Pharmacol., 1968, vol. 20, p. 204-209) is one of the basic models for assessing antidepressants in studies of new pharmaceuticals. The studies have been conducted with white outbred male rats having the weight from 200 to 240 grams. Reserpine has been introduced intraperitoneally, as a single dose of 2.5 mg/kg 2 hours before the introduction of phenotropyl (intraperitoneally, single doses of 25, 50, 100 and 200 mg/kg) and 3 hours before starting the study. The animals from the control group have received intraperitoneally distilled water only in the same volumes as the animals from the experimental groups. The antidepressant activity of phenotropyl has been assessed by its effect on sedation (suppression of the orientation and motion activity), intensity of ptosis and diarrhea, which have been caused by reserpine in the rats.
The orientation and motion activity of the animals has been studied for three minutes in a special activity meter (Varimex). The intensity of ptosis and diarrhea has been assessed on the standard 4-point scale (Mashkovsky M. D., Andreeva N. I., Polezhaeva A. I. Pharmacology of Antidepressants. Moscow, Medicine Publishers, 1983, p. 194-199).

white outbred male mice = test: haloperidol catalepsy method; type: in vivo; conditions: haloperidol 0.5 mg/kg intraperitoneally alone
Experimental: As one of the indicators for antidepressant antagonism in relation to depriming effects of neuroleptics, neuroleptic-induced catalepsy is used. The maintenance of catalepsy in animals is assessed by their ability to maintain set or unusual poses for a definite time (Morpurgo C. Effects of antiparkinson drugs on phenothiazine induced catatonia reaction//Arch. Int Pharmacodyn., 1962, vol. 137 No 1-2, p. 84-94). Reduction or prevention of catalepsy is one of the factors showing antidepressant activity in studied substances.
The studies have been conducted with white outbred male mice having the weight from 18 to 24 grams. Haloperidol is introduced intraperitoneally in a single dose of 0.5 mg/kg. Phenotropyl has been introduced intraperitoneally in doses of 50, 100 and 200 mg/kg in 15 minutes after the introduction of haloperidol. The catalepsy intensity has been assessed by time (in seconds) of keeping the animals in an uncomfortable pose where their front legs have been put onto a bar having the height of 4 cm, in 60, 120 and 180 minutes after introducing the said medications. It is shown in Table 4 that phenotropyl clearly antagonizes haloperidol-induced catalepsy.

white outbred male rats [2] = test: Porsolt method of behavioral despair (helplessness); type: in vivo
From the text: The Porsolt method of behavioral despair (helplessness) (Porsolt R. D., Anton G., Blavet N. et al. Behavioral despair in rats: a new model sensitive to antidepressant treatment//Europ. J. Pharmacol. 1978—v. 47.—p. 379-391) is the basic model for assessing antidepressants (Andreeva N. I., ? H. ? . the Methodical Guidelines for Studying Antidepressant Activity of Pharmaceuticals,//Guidebook for Experimental (Preclinical) Studies of New Pharmaceuticals of the RF Ministry of Public Health.—ZAO IIA “Remedium”.—2000.—p. 121-125). The studies have been conducted on white outbred male rats having the weight of 230-250 grams. The animals have been put into a water reservoir having 40 cm in diameter and the depth of 60 cm, for the rats cannot either run out of the reservoir or find a support in it. The water temperature has been maintained at the level of 25° C., the experiments have been conducted within the period from 12 A.M. to 4 P.M. After coming into water the animals begin displaying energetic motion activity aimed at finding a way out of the aversive (troublesome) situation, but then they stop their attempts and take a typical position in the water, while being fully immovable or making insignificant motions necessary for keeping their heads over the water surface. The depressive condition intensity rate in this test is the duration of immobility. The immobility condition has been assessed visually, determining its duration within 10 minutes of the observations. Substances having antidepressant activity alleviate this condition by reducing the immobility time.
The studies have been conducted using animals divided into groups. The animals from the experimental groups have received single doses of phenotropyl in the amounts of 25, 50 and 100 mg/kg or the standard amitriptyline medication in the amount of 10 mg/kg (ampoule solution made by Spofa, the Czech Republic) in the volume corresponding to the dose. The animals from the control group have received distilled water in the same dosage. All the substances have been given intragastrically 40 minutes before the an experiment.

white outbred male rats [3] = test: involuntary swimming in a reservoir with freely moving wheels according to Nomura; type: in vivo
Experimental: The method of involuntary swimming in a reservoir with freely moving wheels (Nomura S., Shimizu J., Kinjo M. et al. A new behavioral test for antidepressant drugs//Eur. J. Pharmacol.—1982.—v. 83.—N 34.—p. 171-175) is widely used for assessing the action of antidepressant agents. The installation is a reservoir having dimensions of 64×30×42 cm and divided into four equal sections where wheels are located. The reservoir is filled with water at the temperature of 25° C., coming to the medium line of the wheels. The studies have been conducted with white outbred male rats having the weight from 230 to 250 grams. The rats have been put into each section in the position where their heads are opposite to the wheels, and then the wheel speed has been recorded for 10 minutes with the use of electromechanical counters. The number of wheel revolutions made by the rat for 10 minutes is recorded.
This study has been conducted with animals from different groups. The rats from the experimental groups have received single doses of phenotropyl in the amounts of 25, 50 and 100 mg/kg or the standard amitriptyline medication in the amount of 10 mg/kg (ampoule solution made by Spofa, the Czech Republic) in the volume corresponding to the dosage. The animals from the control group have received distilled water in the same dosage. All the substances have been given intragastrically 40 minutes before the an experiment.

[4] = system: patients having depressive illnesses; test: clinical study, Hamilton rating scale for depressive illness; type: in vivo, human; conditions: 75 mg daily
Experimental: The Hamilton rating scale for primary depressive illness (Hamilton M. Development of a rating scale for primary depressive illness//Br J Soc Clin Psychol. 1967 December;6(4):278-96) is one of the most widely used scales for assessing depression in the clinical practice.
The material for clinical studies has comprised two homogenous groups of patients having depressive illnesses (40 persons) aged 20-42, out of which 20 patients have taken amitriptyline in the daily dose of 75 mg (25 mg three times a day), and 20 patients have taken phenotropyl in the daily dose of 100 mg as a single dose in the morning time. For a comparative study of the medications antidepressant activity the patients have been enlisted for the study according to the following criteria: the informed consent is available, a light or moderate depressive episode (F32.0 ? F32.1 according to MCB-10) is present, the total score under the Hamilton rating scale is not lower than 18, no contraindications to taking amitriptyline and phenotropyl. The patients have been relatively uniformly assigned to the said groups according to meaningful factors, such as sex and age, time for which the condition exists and syndrome characteristics. The condition existence time varied from 1 to 2 years. The therapy efficiency has been assessed on the basis of a degree of reduction of the total score under the Hamilton scale, namely: full effect—reduction by more than 50%; partial reduction—from 25 to 50%; no effect—reduction by less than 25%. The condition of the patients has been assessed during the background studies and at each 7th day of the therapy for the whole 6 weeks of the therapy. In total, seven examinations have been carried out. The comparative data on the general efficiency pf the medications, as given in Table 5, evidence a rather quick reduction of the depressive illness psychopathological symptoms in the process of administering phenotropyl and amitriptyline. However, the antidepressant effect of phenotropyl has been more pronounced on the 7th and 14th days of the therapy. The full reduction has been attained in 25% and 40% of the patients, respectively. […] From the 28th day of the therapy the number of the patients experiencing the maximum effect has not been changed either on the 35th or the 42nd days of the therapy. Out of 20% of the patients experiencing a partial reduction of the depressive symptoms, 15% have been patients with the reduction from 25% to 50%, and 5%—patients with the reduction by less than 25%.

## COC(=O)[C@H]1[C@H]2C[C@@H]3c4[nH]c5cc(OC)ccc5c4CCN3C[C@H]2C[C@@H](OC(=O)c2cc(OC)c(OC)c(OC)c2)[C@@H]1OC [Reserpine, reference compound]
White outbred male rats [1]; 4-point scale
  Diarrhea: 2.4 ± 0.1 points
White outbred male rats [1]; 3 hours before study, 4-point scale
  Ptosis: 3.6 ± 0.2 points
White outbred male rats [1]; three minutes, Varimex
  Number of pulses in activity meter: 11.8 ± 2.2

## O=C(CCCN1CCC(O)(c2ccc(Cl)cc2)CC1)c1ccc(F)cc1 [Haloperidol, reference compound]
White outbred male mice; 60 minutes
  Catalepsy: 1.3 ± 0.8 s
White outbred male mice; 120 minutes
  Catalepsy: 27.5 ± 8.5 s
White outbred male mice; 180 minutes
  Catalepsy: 63.4 ± 2.8 s

## CN(C)CCC=C1c2ccccc2CCc2ccccc21 [Amitriptyline, 5-(3-dimethylaminopropylidene)-10,11-dihydrodibenzocycloheptine hydrochloride, reference compound]
White outbred male rats [2]; 10 mg/kg intragastrically
  effect on immobility time: reliably reduced the immobility time
White outbred male rats [2]; single dose 10 mg/kg intragastrically 40 minutes before, 10 minutes observation
  Time of immobility: 166.1 ± 46.5 s
White outbred male rats [3]; 10 mg/kg intragastrically
  effect on number of wheel revolutions: reliably increasing the number of wheel revolutions
White outbred male rats [3]; single dose 10 mg/kg intragastrically 40 minutes before
  Number of wheel revolutions for 10 minutes: 115.1 ± 24.6
[4]; 7th therapy day
  patients (%) with reduction of total Hamilton score 25-49: 20%
  patients (%) with reduction of total Hamilton score <25: 80%
  patients (%) with reduction of total Hamilton score ≧50: 0%
  patients (n) with reduction of total Hamilton score 25-49: 4
  patients (n) with reduction of total Hamilton score <25: 16
  patients (n) with reduction of total Hamilton score ≧50: 0
[4]; 14th therapy day
  patients (%) with reduction of total Hamilton score 25-49: 30%
  patients (%) with reduction of total Hamilton score <25: 50%
  patients (%) with reduction of total Hamilton score ≧50: 20%
  patients (n) with reduction of total Hamilton score 25-49: 6
  patients (n) with reduction of total Hamilton score <25: 10
  patients (n) with reduction of total Hamilton score ≧50: 4
[4]; 21st therapy day
  patients (%) with reduction of total Hamilton score 25-49: 30%
  patients (%) with reduction of total Hamilton score <25: 30%
  patients (%) with reduction of total Hamilton score ≧50: 40%
  patients (n) with reduction of total Hamilton score 25-49: 6
  patients (n) with reduction of total Hamilton score <25: 6
  patients (n) with reduction of total Hamilton score ≧50: 8
[4]; 28th therapy day
  patients (%) with reduction of total Hamilton score 25-49: 10%
  patients (%) with reduction of total Hamilton score <25: 20%
  patients (%) with reduction of total Hamilton score ≧50: 70%
  patients (n) with reduction of total Hamilton score 25-49: 2
  patients (n) with reduction of total Hamilton score <25: 4
  patients (n) with reduction of total Hamilton score ≧50: 14
[4]; 35th therapy day
  patients (%) with reduction of total Hamilton score 25-49: 5%
  patients (%) with reduction of total Hamilton score <25: 10%
  patients (%) with reduction of total Hamilton score ≧50: 85%
  patients (n) with reduction of total Hamilton score 25-49: 1
  patients (n) with reduction of total Hamilton score <25: 2
  patients (n) with reduction of total Hamilton score ≧50: 17
[4]; 42nd therapy day
  patients (%) with reduction of total Hamilton score 25-49: 5%
  patients (%) with reduction of total Hamilton score <25: 10%
  patients (%) with reduction of total Hamilton score ≧50: 85%
  patients (n) with reduction of total Hamilton score 25-49: 1
  patients (n) with reduction of total Hamilton score <25: 2
  patients (n) with reduction of total Hamilton score ≧50: 17
